Experimental data as given in patent publication US12721857B2 (priority 2021, dated 2026).
Where two headings read alike, the source gives them in different places.

Columns and labels:
[1] = molecular target: acetylcholinesterase (AChE) (Homo sapiens, UniProt P22303); assay: In vitro acetylcholinesterase activity assay; type: biochemical
Description: In the AChE assay, a reaction mixture containing DCB was incubated at 20° C. in the dark for 10 min, and 10 μL of AChE solution was then added. For measuring in vitro AChE activity, the test solutions contained DCB at various concentrations, including 5, 25, 50, 100, 200, and 400 µg/mL (FIGS. 13A and 13B). After AChE was added, the reaction mixture was incubated at 20° C. for 10 min, and the absorbance was measured at 405 nm.

[2] = oral exposure, within 24-96 hours of ingestion; cited from earlier work
Candida albicans = assay: Agar disk diffusion on urine cultures, Candida albicans; type: cell-based
From the text: (§1) Agar disk diffusion testing was used for antimicrobial susceptibility testing. The test provides qualitative results by categorizing susceptible, intermediate or resistant bacteria. Agar disk diffusion testing cannot distinguish bactericidal and bacteriostatic effects. Moreover, the agar disk-diffusion method is not appropriate to determine the minimum inhibitory concentration (MIC), as it is impossible to quantify the amount of the antimicrobial agent diffused into the agar medium. The advantages of this method, mainly simplicity and low cost, have contributed to its common use for the antimicrobial screening of plant extracts, essential oils, and other drugs.
(§2) The study has been performed on 47 urine samples collected from patients diagnosed with urinary tract infection (UTI), before instituting any type of therapy. Several types of pathogens were identified from the urine cultures performed: Escherichia coli-34 cases; Klebsiella pneumoniae-six cases; Proteus mirabilis-one case; Staphylococcus haemolyticus-one case; Enterococcus faecalis-two cases; Candida albicans-three cases. The susceptibility testing of the pathogens has been performed using DCB-impregnated microdisks to identify the optimal value that induces a significant inhibition of microbial culture development, compared to certified antibiotic/antifungal microdisks. The antibiogram/antifungal was performed on the Müller-Hinton (MH)/Sabouraud medium, and the results obtained using DCB-impregnated microdisks are presented in the Table 7, compared to the action of the reference microdisks.

[3] = type: in vitro ADME
From the text: FIG. 11 is the in vitro simulation of DCB digestion: stomach (gastric phase, at pH 1.2 and pH 4.5) and duodenum (small intestinal phase, at pH 7.2). (DCB: Chlorogenoborate diester complex);
DCB is protected from acids or/and enzymes in the stomach and small intestine. Chlorogenic acids are, generally, resistant to acid environment and digestive enzymes. […] The DCB complex is dissociated in the colon by borate group transfer to cis-diol sugars, e.g., fructose and sialic acid, in bacteria in the microbiome in the gut mucus membrane. The sugar/borate complexes have a high association constant. […] At a gastric pH of 1.2, DCB undergoes about 50% degradation. When there is food in the stomach, after a meal, the stomach pH can raise to as high as 4-5. Under conditions prevailing after a meal (pH 4.5), DCB undergoes <6% degradation. Under conditions prevailing in the intestines (pH 7.2), DCB undergoes <4% degradation. Thus, when administered with a meal, DCB is protected in the gastrointestinal tract and works as a classical prebiotic. Alternatively, DCB may be administered in a dosage form with an enteric coating which is stable and protects DCB from stomach acids, but which dissolves or breaks down at pH values in the intestines. Suitable enteric polymers include methyl (meth)acrylate-(meth)acrylic acid copolymers, cellulose acetate phthalate (CAP), cellulose acetate succinate, hydroxypropyl methyl cellulose phthalate, hydroxypropyl methyl cellulose acetate succinate, polyvinyl acetate phthalate, and similar polymers.

DPPH scavenging assay = type: biochemical
Escherichia coli = assay: Agar disk diffusion on urine cultures, Escherichia coli; type: cell-based
From the text: as §1, §2

Klebsiella pneumoniae = assay: Agar disk diffusion on urine cultures, Klebsiella pneumoniae; type: cell-based
From the text: as §1, §2

Proteus mirabilis = assay: Agar disk diffusion on urine cultures, Proteus mirabilis; type: cell-based
From the text: as §1, §2

[4] = test system: Staphylococcus haemolyticus; assay: Agar disk diffusion on urine cultures, Staphylococcus haemolyticus; type: cell-based
From the text: as §1, §2

Enterococcus faecalis = assay: Agar disk diffusion on urine cultures, Enterococcus faecalis; type: cell-based
From the text: as §1, §2

[5] = test system: pathogens identified from urine cultures of patients with urinary tract infection; assay: Antibiotic/antifungal screening on urine cultures, all pathogens together; type: cell-based
From the text: as §1
as §2, with “The antibiogram/antifungal was performed on the Müller-Hinton (MH)/Sabouraud medium, and the results obtained using DCB-impregnated microdisks are presented in the Table 7, compared to the action of the reference microdisks.” left out

L929 cells = type: cell-based; settings: mouse, 24 h
Description: In vitro DCB cytotoxicity: The viability of L929 cells treated for 24 hours with different concentrations of DCB was tested by the 3-(4,5-dimethylthiazol-2-yl)-2,5-diphenyltetrazolium bromide (MTT) assay. The MTT assay is commonly used for cytotoxicity, viability, and cell proliferation studies. The treatment of cells with MTT allows the assessment of oxidative metabolism and cellular response to external factors that can have a positive or negative effect on cell survival in culture. This quantitative colorimetric method is based on the reduction of the yellow-colored compound MTT to a dark blue formazan. The reduction of MTT, achieved by mitochondrial enzymes, e.g., succinate dehydrogenase, is directly proportional to the number of viable cells, being an index of cellular/mitochondrial integrity. The optical density is evaluated spectrophotometrically, resulting in a direct relationship between absorbance, dye concentration, and the number of viable and metabolically active cells.
In multi-well plates, L929 cells were plated at a cell concentration of 10^4 cells/cm^2. MTT (1 mg/ml, in a culture medium without serum) and DCB was added to each well. […] The resulting solution was densitometered at 550 nm, there being a direct proportional relationship between the recorded optical density and the number of metabolically active cells.

[6] = In vivo DCB toxicity (acute, subchronic, chronic); design: species or system mice; settings: both sexes, BALB/c, mouse, in vivo, po; acute, p.o. administration in mice; read-out: median lethal dose (LD50)
Description: (§3) In vivo DCB toxicity: The laboratory animals and the experimental protocol for determining acute, subchronic and chronic toxicity were established in accordance with the Organization for Economic Co-operation and Development (OECD) Guidelines for Testing of Chemicals. The toxicodynamic experiment was performed on groups of 10 BALB/c mice, eight weeks old, with an average weight of 25 g, the number of females and males being equally distributed (five for each group), which were administered different doses of DCB, at various intervals, as follows: • (i) for the acute experiment (at 24 hours): • (a) per os (p.o.), by oral gavage, five different doses of DCB in distilled water: 5 mg/kg body weight (b.w.), 50 mg/kg b.w., 300 mg/kg b.w., 2000 mg/kg b.w. and 5000 mg/kg b.w.; • (b) intra-peritoneal (i.p), a single dose of DCB, in saline: 50 mg/kg b.w.; • (ii) for the subacute experiment (lasting 28 days), three different daily doses of DCB in drinking water: 50 mg/kg b.w., 300 mg/kg b.w. and 1000 mg/kg b.w.; • (iii) for the chronic experiment (lasting 90 days), three different daily doses of DCB in drinking water: 50 mg/kg b.w., 300 mg/kg b.w. and 1000 mg/kg b.w. Throughout the duration of the experiment, the condition of the animals was monitored daily, at the same hour every day (during morning). Also, the animals were maintained in standard conditions of temperature, humidity, and lighting. Food and water were administered ad libitum. Standard Conditions Include: • A 14-hour light/10-hour dark cycle or 12 light/12 dark cycle; • A temperature of 65-75° F. (~18-23° C.); and • A humidity of 40-60%.
(§4) The control mice were monitored and maintained under the same conditions, only that instead of the DCB they received: • (i) for the acute experiment: (a) distilled water, p.o., by oral gavage and (b) saline, i.p., respectively; • (ii) for the subacute experiment and for the chronic one: only the drinking water normally consumed. […]

BALB/c mice = assay: In vivo DCB toxicity (acute, subchronic, chronic)
Description: as §3, §4

acetylcholinesterase (AChE), sequence (P22303 32-614, species assumed): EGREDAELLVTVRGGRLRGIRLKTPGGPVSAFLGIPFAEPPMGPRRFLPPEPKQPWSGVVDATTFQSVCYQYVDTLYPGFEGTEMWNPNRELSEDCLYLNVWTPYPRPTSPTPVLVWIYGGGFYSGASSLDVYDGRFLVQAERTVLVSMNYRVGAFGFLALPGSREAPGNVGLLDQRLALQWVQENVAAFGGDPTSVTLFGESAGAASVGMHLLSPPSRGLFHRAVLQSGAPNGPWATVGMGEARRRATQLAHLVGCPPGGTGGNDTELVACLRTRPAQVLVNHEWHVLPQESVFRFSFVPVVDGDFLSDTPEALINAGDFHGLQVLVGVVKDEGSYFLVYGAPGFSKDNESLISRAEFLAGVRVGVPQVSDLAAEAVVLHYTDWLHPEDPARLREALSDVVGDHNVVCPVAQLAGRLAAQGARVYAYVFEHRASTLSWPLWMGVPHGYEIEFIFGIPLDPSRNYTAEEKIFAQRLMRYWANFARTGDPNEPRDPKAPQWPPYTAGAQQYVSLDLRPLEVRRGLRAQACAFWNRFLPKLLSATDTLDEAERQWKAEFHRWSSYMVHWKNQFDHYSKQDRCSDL

## O=C(/C=C/c1ccc(O)c(O)c1)O[C@@H]1C[C@](O)(C(=O)O)C[C@@H](O)[C@H]1O [CA, Chlorogenic acid, reference compound]
[1]
  IC50: 243 µM
[1]; read-out: inhibition of AChE activity
  inhibition at 110 µg/mL: > 80%

## OB(O)O [BA, Boric acid]
[2]
  BA absorbed: 81-95%

## OC(Cn1cncn1)(Cn1cncn1)c1ccc(F)cc1F [Fluconazole, reference compound]
Candida albicans; certified microdisk
  Inhibition diameter (Ø, mm] of microbial culture: 29-33 mm

## O=C(/C=C/c1ccc2c(c1)O[B-]1(O2)Oc2ccc(/C=C/C(=O)O[C@@H]3C[C@](O)(C(=O)O)C[C@@H](O)[C@H]3O)cc2O1)O[C@H]1C[C@@](O)(C(=O)O)C[C@H](O)[C@@H]1O (stereo partly shown) [DCB, diester chlorogenoborate]
[3]; pH 1.2
  degradation: about 50%
[3]; pH 4.5
  degradation: < 6%
[3]; pH 7.2
  degradation: < 4%
DPPH scavenging assay
  antioxidant activity relative to CA: approximately six times more antioxidant activity than CA
[1]
  IC50: 39.5 µM
  factor of AChE inhibition relative to CA: about 3.4
Escherichia coli; 0.025 μM DCB microdisk
  Inhibition diameter (Ø, mm] of microbial culture: 0 mm
Escherichia coli; 2.5 μM DCB microdisk
  Inhibition diameter (Ø, mm] of microbial culture: 6-8 mm
Escherichia coli; 5.0 μM DCB microdisk
  Inhibition diameter (Ø, mm] of microbial culture: 8-14 mm
Escherichia coli; 50 μM DCB microdisk
  Inhibition diameter (Ø, mm] of microbial culture: 29-37 mm
Klebsiella pneumoniae; 0.025 μM DCB microdisk
  Inhibition diameter (Ø, mm] of microbial culture: 0 mm
Klebsiella pneumoniae; 2.5 μM DCB microdisk
  Inhibition diameter (Ø, mm] of microbial culture: 5-7 mm
Klebsiella pneumoniae; 5.0 μM DCB microdisk
  Inhibition diameter (Ø, mm] of microbial culture: 8-15 mm
Klebsiella pneumoniae; 50 μM DCB microdisk
  Inhibition diameter (Ø, mm] of microbial culture: 28-36 mm
Proteus mirabilis; 0.025 μM DCB microdisk
  Inhibition diameter (Ø, mm] of microbial culture: 0 mm
Proteus mirabilis; 2.5 μM DCB microdisk
  Inhibition diameter (Ø, mm] of microbial culture: 0 mm
Proteus mirabilis; 5.0 μM DCB microdisk
  Inhibition diameter (Ø, mm] of microbial culture: 15 mm
Proteus mirabilis; 50 μM DCB microdisk
  Inhibition diameter (Ø, mm] of microbial culture: 35 mm
[4]; 0.025 μM DCB microdisk
  Inhibition diameter (Ø, mm] of microbial culture: 0 mm
[4]; 2.5 μM DCB microdisk
  Inhibition diameter (Ø, mm] of microbial culture: 0 mm
[4]; 5.0 μM DCB microdisk
  Inhibition diameter (Ø, mm] of microbial culture: 11 mm
[4]; 50 μM DCB microdisk
  Inhibition diameter (Ø, mm] of microbial culture: 27 mm
Enterococcus faecalis; 0.025 μM DCB microdisk
  Inhibition diameter (Ø, mm] of microbial culture: 0 mm
Enterococcus faecalis; 2.5 μM DCB microdisk
  Inhibition diameter (Ø, mm] of microbial culture: 0 mm
Enterococcus faecalis; 5.0 μM DCB microdisk
  Inhibition diameter (Ø, mm] of microbial culture: 12-14 mm
Enterococcus faecalis; 50 μM DCB microdisk
  Inhibition diameter (Ø, mm] of microbial culture: 26-29 mm
Candida albicans; 0.025 μM DCB microdisk
  Inhibition diameter (Ø, mm] of microbial culture: 0 mm
Candida albicans; 2.5 μM DCB microdisk
  Inhibition diameter (Ø, mm] of microbial culture: 0 mm
Candida albicans; 5.0 μM DCB microdisk
  Inhibition diameter (Ø, mm] of microbial culture: 12-18 mm
Candida albicans; 50 μM DCB microdisk
  Inhibition diameter (Ø, mm] of microbial culture: 37-40 mm
[5]; 50 μM DCB-impregnated microdisks
  antimicrobial activity compared with certified microdisks: comparable to, or superior to, that of the certified microdisks
[5]; 0.025 to 2.5 μM DCB
  influence on the growing pathogens: little or no influence on the growing pathogens
L929 cells
  impact on cell viability compared with 5% aqueous DMSO control: much less impact on MTT concentration, and thus cell viability, than a negative control treated with 5% aqueous DMSO
[6]
  LD50 at 24 h: > 5000 mg/kg
BALB/c mice; acute (24 hours), subchronic (28 days) and chronic (90 days) experiments
  histopathology of internal organs: normal aspects were highlighted for all internal organs analyzed
BALB/c mice; p.o. administration in mice
  acute toxicity class (OECD): Category V, practically non-toxic
physchem
  pKa: ~4

## O=C(O)c1cn(C2CC2)c2cc(N3CCNCC3)c(F)cc2c1=O [Ciprofloxacin, reference compound]
Escherichia coli; certified microdisk
  Inhibition diameter (Ø, mm] of microbial culture: 28-35 mm
Klebsiella pneumoniae; certified microdisk
  Inhibition diameter (Ø, mm] of microbial culture: 27-34 mm
Proteus mirabilis; certified microdisk
  Inhibition diameter (Ø, mm] of microbial culture: 33 mm

## CO[C@@]1(NC(=O)Cc2cccs2)C(=O)N2C(C(=O)O)=C(COC(N)=O)CS[C@@H]21 [Cefoxitin, reference compound]
[4]; certified microdisk
  Inhibition diameter (Ø, mm] of microbial culture: 25 mm
Enterococcus faecalis; certified microdisk
  Inhibition diameter (Ø, mm] of microbial culture: 23-26 mm
